Several values for one entry are separate records, joined by “and”; a condition that tells them apart may be missing. Equal values may be shown once. Square brackets hold non-standard residues; d marks the D form. Peptide text beside a SMILES is read from it. Dmt = Cc1cc(O)cc(C)c1C[C@H](N)C(=O)O

A word on the AUC(0-t): it is exposure summed from dosing to a finite time, without extrapolation to infinity. Low readings indicate less exposure, high ones more exposure. What is called Cmax is the maximum level reached in the sampled fluid or tissue. Usually Tmax stands for the time at which the peak concentration occurs. As a reminder, the half-life is the time needed for the level to fall by half in the phase considered. A lower half-life goes with rapid decline. By Kd is commonly meant the free concentration of one partner at which half of the binding sites on the other are occupied at equilibrium, for simple one-to-one binding. Low values mean a tighter complex, high ones a looser complex.

A short description of series [1]: Rat PK study, intravenous administration, plasma. Type of series: in vivo. Particulars: intravenous 1 mg/kg; for AUC(0-inf): read-out: AUCINF_obs; for clearance: read-out: Cl_obs; for Vd: read-out: Vss_obs. On the procedure: General Methods and Procedures of Rat PK Studies (Aptuit)
All test formulations will be prepared on the day of administration prior to dosing and used as soon as possible. All test formulations will be stored at room temperature, prior to administration.
The dose formulation(s) will be prepared and administered by volume. The target dose levels are detailed below:
Test substances discrete doses will be formulated in saline water at the final concentration of 0.5 mg/mL and intravenously administered at the volume of 2 mL/kg to rats.
Actual body weights of animals will be recorded on the day of dose administration. Doses volumes will be adjusted taking into account the weight of the animal at the time of dose administration. Doses formulations will be administered intravenously via tail vein (2 mL/kg); an aliquot of each dose formulation will be taken before administration. The actual dose received by each animal will be registered and residual volumes discarded.
After administration, serial blood samples will be collected from the lateral tail vein of each rat, then animals will be sacrificed humanely. Approximately 300 μL of Blood will be collected into EDTA tubes. Then exactly 240 μL of blood will be transferred into a micronic tube containing 10 μL of a solution (30 mg/mL NaF and 239 mg/mL Pefabloc) at each of the following time points post-dose (actual times will be recorded): 0.083, 0.25, 0.5, 1, 2, 4 and 8 hours after dosing. All blood samples will be thoroughly but gently mixed following collection and placed on wet ice. Blood will be centrifuged (3000 g for 10 min at approximately 4° C.) as soon as possible and two 50 μL aliquots of plasma will be transferred into micronic tubes. Residual blood will be discarded.
Plasma samples will be frozen at approximately −80° C. as soon as possible after preparation and stored until analysis.
Plasma samples will be assayed using a method based on protein precipitation with methanol followed by HPLC/MS-MS analysis with an optimized analytical method. Calibration standards (CS) and Quality control samples (QC) will be prepared on the day of analysis. Study samples, CS, QC and blanks will be spiked with an internal standard (IS) to improve the precision of the assay. Study samples will be analyzed together with CS, QC and blank samples (including also double blanks). From the calibration curve, the linear range of the analytical method will be determined and lower and upper limits of quantitation specified. Details of the conditions and methods used will be included in the report. All dosing solutions will be checked for accuracy and actual concentration will be reported.
The results for test substances in plasma will be subject to non-compartmental pharmacokinetic analysis using Phoenix WinNonlin 6.3 (see Section 8). The following parameters will be reported:
Calculated concentration of test item in the corresponding formulation (expressed as mg/mL). Dose levels (expressed as mg/kg). Actual collection times (expressed as hh:mm). Plasma concentrations (expressed as ng/mL). Quantitative information about 2 metabolites in Plasma. PK parameters (iv: Cmax, AUClast, AUCinf, CL, Vss, t1/2, if applicable; Abnormal clinical signs and relevant findings, if any.

Series [2] concerns CL:DOPC 1:3 liposomes (cardiolipin). Kind of series: Isothermal titration calorimetry (ITC) of test compound into CL:DOPC liposomes. Particulars: 20 mM HEPES pH 7.4. Format: binding. On the procedure:
Example 18: Isothermal Titration Calorimetry (ITC) Study
1. Preparation of CL:DOPC 1:3 Liposomes (CL Concentration 0.1 mM)
146 μl of cardiolipin solution (5.1 mg/mL in EtOH, Sigma-Aldrich, C1649-10MG) were mixed with 1.2 mg 0.05 mg (exact weight, see Table 1) of DOPC (Avanti Polar Lipids, 850375P) and 20 mM HEPES buffer pH=7.4. Resulting solution was diluted up to 5 mL with the same buffer, vortexed for 2 min and sonicated in bath sonicator for 30 min at room temperature. Liposomes were produced by manual extrusion (Avestin, The LiposoFast-Stabilizer with a LiposoFast-Basic) through a 100 nm filter (Avestin, PC membranes 0.1 m or Avanti Polar Lipids, PC membranes 0.1 μm, 610005). Extrusion was performed for 21 times. EtOH concentration in sample is 2.9%. Obtained CL:DOPC solutions were tested for homogeneity by DLS (Malvern Instruments Ltd, Zetasizer Nano ZSP, instrument with Malvern Instruments Ltd software 7.11) using the following parameters—medium: water; refractive index: 1.33; viscosity: 0.8872 cP; temperature: 25° C.; nanoparticles: liposomes; refractive index of materials: 1.60; detection angle of 173°, a wavelength of 633 nm. All measurements were performed in triplicate.
2. Preparation of Test Compound Solutions
2 mg or 14 mg (exact weight, see Table 1) of test compound were dissolved in 20 mM HEPES buffer (pH=7.4, contains 2,9% (V/V) of EtOH) to obtain 0.7 mM concentration (for exact volumes see Table 3). Obtained solution was vortexed for 2 min.
3. ITC Titration Experiments
Instrument cell was washed and purged with ≈100 μL of CL:DOPC liposomes solution. After washing cell was filled with CL:DOPC liposomes solution. Injection syringe was loaded with test compound solution. Injection volumes were set to values shown in Table 2 and DP values were set to 2.5 μcal/sec in all experiments. Time between injections—105 seconds. Titration of each compound is performed in triplicate, results are reported as mean value±standard deviation (see Table 4).

Take `N=C(N)NCCC[C@@H](NC(=O)[C@@H](N)Cc1ccccc1)C(=O)N[C@@H](Cc1ccccc1)C(=O)N[C@@H](CCCCN)C(N)=O` [Example 1 non-deuterated, Phe-D-Arg-Phe-Lys-NH2, reference compound] (H-F[dR]FK-NH2): in series [1], the AUC(0-t) was found to be 1950 ng·h/mL, the peak concentration (Cmax) stood at 3200 ng/mL, the Tmax is 4.98 min and the half-life was 30 min. In addition, in series [1], the AUC(0-inf) stood at 1960 ng·h/mL, the clearance was found to be 8.55 mL/min/kg and the Vd came to 0.27 L/kg. In series [2] (Average of replicates), this molecule registered a Ka of 194000 M⁻¹ and a Kd of 5.39 µM. In series [2] (single replicate titration), the Ka is 230000 M⁻¹ and 141000 M⁻¹ and 211000 M⁻¹; the Kd is 4.35 µM and 7.09 µM and 4.74 µM.

In the case of `[2H]C([2H])(N)C([2H])([2H])C([2H])([2H])C([2H])([2H])[C@H](NC(=O)[C@H](Cc1ccccc1)NC(=O)[C@@H](CCCNC(=N)N)NC(=O)[C@@H](N)Cc1ccccc1)C(N)=O` [Example 1, Phe-D-Arg-Phe-(3,3,4,4,5,5,6,6-octadeuterium)-Lys-NH2], in series [1], the AUC(0-t) was 2300 ng·h/mL, the concentration peaked (Cmax) at 4300 ng/mL, the time to peak (Tmax) stood at 4.98 min and the half-life is 27 min. Further, in series [1], the AUC(0-inf) was found to be 2310 ng·h/mL, the clearance stood at 7.24 mL/min/kg and the Vd amounted to 0.21 L/kg. Also, in series [2] (Average of replicates), the Ka is 389000 M⁻¹ and the Kd was 2.62 µM. Besides, in series [2] (single replicate titration), the Ka is 473000 M⁻¹ and 384000 M⁻¹ and 366000 M⁻¹ and 331000 M⁻¹; the dissociation constant Kd was 2.11 µM and 2.6 µM and 2.73 µM and 3.02 µM.

For the molecule `Cc1cc(O)cc(C)c1C[C@H](NC(=O)[C@H](N)CCCNC(=N)N)C(=O)N[C@@H](CCCCN)C(=O)N[C@@H](Cc1ccccc1)C(N)=O` [Example 11 non-deuterated] (H-[dR][Dmt]KF-NH2), in series [1], the AUC(0-t) worked out at 2120 ng·h/mL, the Cmax turned out to be 2930 ng/mL, the Tmax was 4.98 min and the half-life is 48 min. Besides, in series [1], the AUC(0-inf) was 2120 ng·h/mL, the clearance was found to be 7.97 mL/min/kg and the Vd worked out at 0.29 L/kg.

Turning to `[2H]C([2H])(CN)C([2H])([2H])C[C@H](NC(=O)[C@H](Cc1c(C)cc(O)cc1C)NC(=O)[C@H](N)CCCNC(=N)N)C(=O)N[C@@H](Cc1ccccc1)C(N)=O` [Example 11, D-Arg-DMT-(4,4,5,5-d4)-Lys-Phe-NH2], in series [1], the area under the curve AUC(0-t) was determined as 2920 ng·h/mL, the Cmax worked out at 4680 ng/mL, the time of peak concentration (Tmax) came out at 4.98 min and the half-life is 35.3 min. For the same molecule, in series [1], the AUC(0-inf) stood at 2940 ng·h/mL, the clearance stood at 5.7 mL/min/kg and the Vd came out at 0.23 L/kg.

For the origin of these results see patent US20200361987A1, “DEUTERATED TETRAPEPTIDES THAT TARGET MITOCHONDRIA” (STEALTH BIOTHERAPEUTICS CORP., priority 2017, published 2020).
